Reference: PMC4773869, “Influence of plasma-activated compounds on melanogenesis and tyrosinase activity” (Scientific Reports, 2016)

Key:
mushroom tyrosinase [1] = biological target: T1, mushroom tyrosinase (Agaricus bisporus, UniProt C7FF04); assay: Kinetic analysis of the inhibition of mushroom tyrosinase (Lineweaver-Burk and Dixon plots); assay type: biochemical; conditions: Lineweaver-Burk plot; substrate L-DOPA; as-synthesized compound
Method: Latter, we studied the kinetic behavior of mushroom tyrosinase during the oxidation of L-DOPA with the selective ED compounds (4b and 6a). In the present investigation, the oxidation reaction of L-DOPA by mushroom tyrosinase follows the Michaelis-Menten kinetics. The inhibitory mechanism of both of the compounds was determined by using Lineweaver-Burk plot (double reciprocal plot) as well as a Dixon plot at various concentrations of substrate L-DOPA (0.0, 0.125, 0.25, 0.5, 1.0 and 2.0 mM), as shown in Fig. 4. The double-reciprocal plot of enzyme activity in the presence of compound 4b with concentration 0.0, 18.0, 36.5, 73, 146 μM and compound 6a with concentration 0.0, 6.7, 13.5, 27 μM are shown in Fig. 4(a,b), respectively. […] The Dixon plot was determined by 1/V versus inhibitor concentrations [I] at various concentrations of substrate in mM. […] Further, to determine the action of these eugenol derivatives on the structure of tyrosinase enzyme, we performed CD analysis and molecular docking studies. A series of experiments were performed to determine the inhibition kinetics using the following method. […] The formation of DOPAchrome was continuously monitored at 475 nm for 5 min at a 30 sec intervals in the microplate reader after the addition of the enzyme.

mushroom tyrosinase [2] = biological target: T1, mushroom tyrosinase; assay: Circular dichroism analysis of the secondary structure of mushroom tyrosinase; conditions: tyrosinase + as-synthesized compound (0 min plasma), 0.1 mM; for Turn % of tyrosinase: enzyme alone 7; for α-helix % of tyrosinase: enzyme alone 16; for β-sheet % of tyrosinase: enzyme alone 33; for Random coil % of tyrosinase: enzyme alone 44
Method: The structural changes in tyrosinase after incubation with ED and PAED were plotted in Fig. 5. […] We observed that the control tyrosinase enzyme has 16% α-helix, 33% β-sheets, 7% turn, and 44% random coil. After the interaction with 4a, the amount of α-helix changed to 15% and β-sheets changed to 35%. On the other hand, after the plasma treatment of 4a the amount of α-helix changed to 17% and β-sheets changed to 31%. While, after interacting with 4b, the amount of α-helix is 16.0%, β-sheets 29%, turn 10%, and random coil is 45.0%. However, plasma-activated 4b interacts differently with tyrosinase enzyme, showing 16% α-helix, 33% β-sheets, 6% turn, and 45% random coil. When 6a ED interacted with tyrosinase enzyme, we observed 20% α-helix, 25% β-sheets, 11.0% turn, and 44% random coil. However, 6a PAED interacts with tyrosinase enzyme, the α-helix changed to 19%, β-sheets 28%, turn 9%, and random coil 44%. […] To obtain further detail on the interaction of the ED with tyrosinase enzyme, we studied the molecular docking. For the CD spectroscopic studies[65][66][67] a J-815 spectrophotometer (Jasco, Japan) was used, equipped with a Peltier system that controlled the temperature. (1S)-(+)-10-camphorsulfonic acid (Aldrich, Milwaukee, WI) with a molar extinction coefficient of 34.5 M/cm at 285 nm and a 2.36 M/cm molar ellipticity (θ) at 295 nm was used for the CD calibrations. The samples were pre-equilibrated at the desired temperature for 15 min, and the scan speed was fixed for adaptative sampling (error F 0.01) with a response time of 1 sec and a 1 nm bandwidth. The secondary structure of the mushroom tyrosinase was monitored by using a 1.0 cm path length cuvette. The mushroom tyrosinase (0.2 mg/ml) was prepared in phosphate buffer (20 mM) at pH 6.8 for CD analysis. We used the 0.1 mM concentration of all derivatives in 1 ml buffer solution, with or without 10 min plasma treatment. All spectra were collected in triplicate from 200 to 250 nm and the background was corrected against the buffer (blank). The percentages of secondary structures of proteins were calculated using inbuilt Jasco software.

B16F10 cells = assay: Cell morphology of melanoma cells (microscopy); assay type: cell-based, murine; conditions: 14-42 μg/ml, 24 hr, as-synthesized
Method: For cell morphology, the melanoma cells were seeded in cell culture plates (SPL Korea) and incubated at 37 °C (5% CO2 atmosphere). The cells were then incubated with the various concentrations of 4b and 6a (0 (con), 14, 21, 28, 35, and 42 μg/ml) following 24 hr incubation. The cell morphology was accessed and images were captured using an inverted fluorescent microscope (Nikon, ECLIPSE, Ti).

[3] = tested on: intracellular ROS in B16F10 cells; assay: Intracellular ROS measurement (carboxy-H2DCFDA); assay type: cell-based, murine; conditions: for intracellular ROS level, PAED compared to ED: plasma-treated compound versus as-synthesized compound
Method: Intracellular reactive oxygen species (ROS) were quantified using carboxy-H2DCFDA (5-(and 6)-carboxy-20,70-dichlorodihydrofluorescein diacetate), by monitoring the fluorescence intensity.
Briefly, various concentrations of as-synthesized 4b and 6a or plasma-treated 4b and 6a were incubated with cells. After 24 hr, the cells were centrifuged for 5 min at 1000 rpm and the collected cell pellet was washed with PBS and labeled with carboxy-H2DCFDA dye following 30 min of incubation at 37 °C. The samples were centrifuged again and each pellet was mixed with 500 μl PBS. The 200 μl samples were then transferred in 96-well plates (black plate, clear bottom, corning incorporated USA) and fluorescence was measured at excitation/emission: 485/528 nm using a microplate reader.

[4] = tested on: MITF expression in B16F10 cells; assay: Western blot, MITF expression; assay type: cell-based, murine; conditions: 24 hr; for expression of MITF versus control: ED (as-synthesized); for expression of MITF versus ED: PAED (plasma-treated)
Method: (§1) Melanoma cells were incubated with as-synthesized and plasma-treated 4b and 6a test compounds for 24 hr. Following incubation, treated and untreated cells were lysed in RIPA buffer (Cell Signaling Technology, USA), whole cell protein was extracted and subjected to electrophoresis in 12% SDS-PAGE, and blotted onto nitrocellulose membranes. The membrane was probed with the antibodies raised against MITF, tyrosinase and TRP1 (Abcam, USA). The bands were detected using Super Signal West Pico Chemiluminescent Substrate (Pierce, Rockford, IL, USA) and images were taken using a Vilver imaging system (Vilver, Upland, CA, USA).

[5] = tested on: TRP1 expression in B16F10 cells; assay: Western blot, TRP1 expression; assay type: cell-based, murine; conditions: 24 hr; for expression of TRP1 versus control: ED (as-synthesized); for expression of TRP1 versus ED: PAED (plasma-treated)
Method: as §1

[6] = tested on: tyrosinase expression in B16F10 cells; assay: Western blot, tyrosinase expression; assay type: cell-based, murine; conditions: 24 hr
Method: as §1

T1 sequence (C7FF04 2-392): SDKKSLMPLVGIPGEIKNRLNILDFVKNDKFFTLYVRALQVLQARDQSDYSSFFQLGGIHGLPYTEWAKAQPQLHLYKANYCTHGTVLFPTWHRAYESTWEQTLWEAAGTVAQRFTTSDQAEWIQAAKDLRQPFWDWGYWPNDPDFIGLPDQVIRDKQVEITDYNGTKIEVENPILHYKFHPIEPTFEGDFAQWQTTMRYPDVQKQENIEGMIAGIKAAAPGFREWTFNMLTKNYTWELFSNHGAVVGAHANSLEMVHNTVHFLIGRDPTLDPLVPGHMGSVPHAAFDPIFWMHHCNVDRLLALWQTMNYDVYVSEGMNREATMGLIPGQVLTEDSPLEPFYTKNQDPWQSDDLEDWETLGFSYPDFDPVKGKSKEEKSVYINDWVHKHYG

type of inhibition (mushroom tyrosinase [1]) | Turn % of tyrosinase (mushroom tyrosinase [2]) | α-helix % of tyrosinase (mushroom tyrosinase [2]) | α-helix % of tyrosinase (mushroom tyrosinase [2]; listed as 4b-0 min) | β-sheet % of tyrosinase (mushroom tyrosinase [2]) | Random coil % of tyrosinase (mushroom tyrosinase [2]) | Random coil % of tyrosinase (mushroom tyrosinase [2]; listed as 4b-0 min) | effect on cell morphology (B16F10 cells) | melting point | Turn % of tyrosinase (mushroom tyrosinase [2]; listed as 6a-0 min) | SMILES | intracellular ROS, comparison between compounds ([3]; independent of plasma treatment) | intracellular ROS level, PAED compared to ED [3] | expression of MITF versus control [4] | expression of MITF versus ED [4] | expression of TRP1 versus control [5] | expression of TRP1 versus ED [5] | cellular tyrosinase expression versus control ([6]; ED (as-synthesized)) | cellular tyrosinase expression versus control ([6]; PAED (plasma-treated))
competitive inhibitor | 10% | 16.0% | 16% | 29% | 45.0% | 45% | no effect on cell morphology | 81 to 83 °C |  | C=CCc1ccc(OC(=O)COC(=O)c2ccc(O)cc2)c(OC)c1 [4b, 2-[2-methoxy-4-(prop-2-en-1-yl)phenoxy]-2-oxoethyl 4-hydroxybenzoate] | higher intracellular ROS than 6a | higher intracellular ROS levels | higher expression | more expression | higher expression | more expression | no change | no change
uncompetitive inhibitor | 11.0% | 20% |  | 25% | 44% |  | no effect on cell morphology | 114 to 116 °C | 11% | C=CCc1ccc(OC(=O)COC(=O)/C=C/c2ccc(O)cc2)c(OC)c1 [6a, 2-[2-methoxy-4-(prop-2-en-1-yl)phenoxy]-2-oxoethyl(2E)-3-(4-hydroxyphenyl)prop-2-enoate] |  | higher intracellular ROS levels | higher expression | more expression | higher expression | more expression | no change | no change
